This note sets out measurements from patent US20230293439A1, “SPRAY DRYING OF SUPERSATURATED SOLUTIONS OF API WITH ACETIC ACID” (BEND RESEARCH, INC., priority 2020, published 2023).

≈ marks a conversion by molar mass, not a printed value. Like-named read-outs stand apart in the source and are kept apart here.

Data set [1] in a line: Metastability of the supersaturated nilotinib solution from the Solvent-Shift route (visual check for precipitation).
A short description of data set [2]: Solubility determination of nilotinib (saturated solution, 24 h stirring, filtrate analysed by gravimetry). To be noted: for solubility at 24 h: organic solvent or mixture, thermodynamic from solid. It counts as physicochemical.
Protocol: A saturated solution of nilotinib was prepared in the respective solvent at the respective temperature with excess crystalline nilotinib and allowed to stir for 24 h, a suspension of nilotinib in the solvent, which was saturated with nilotinib, was obtained. The suspension was filtered through a 1 micrometer glass filter. Crystalline solubility was determined by analysis of the filtrate, which is the saturated solution, by gravimetry (weighing).
Setting [3] is: Glacial Acetic Acid, wt % of saturated solution.
[4] abbreviates: Methanol:Acetic Acid 9:1 (w:w), wt % of saturated solution.
Where [5] appears, read: Methanol, wt % based on weight of the saturated solution.

Consider `Cc1cn(-c2cc(NC(=O)c3ccc(C)c(Nc4nccc(-c5cccnc5)n4)c3)cc(C(F)(F)F)c2)cn1` [Nilotinib], for which the “Time at which visible solids were observed” value in data set [1] (Example 1: 2.15 wt % nilotinib in 91.2:8.8 (w:w) methanol:acetic acid, 40° C., no polymer) is reported as 7.5 h; in data set [1] (Example 3: 2.19 wt % nilotinib in 85.0:9.0:6.0 (w:w:w) methanol:acetic acid:PVP-VA64, 40° C.) it was 4 h. Besides, the “Appearance of the control mixture (nilotinib weighed directly into the solvent mixture)” value in data set [1] (Example 1 control: 2.06 wt % nilotinib in 89.5:10.5 (w:w) methanol:acetic acid, 40° C.) was “visible slurry”. The solubility at 24 h in data set [2] (25 °C, Glacial Acetic Acid, mg per ml saturated solution, read-out: Solubility at 25° C.) was determined as 135000 µg/mL (≈ 255 mM); in data set [2] (25 °C, Methanol:Acetic Acid 9:1 (w:w), mg per ml saturated solution, read-out: Solubility at 25° C.) it was 6000 µg/mL (≈ 11.3 mM); in data set [2] (25 °C, Methanol, mg of nilotinib per ml saturated solution, read-out: Solubility at 25° C.) it was 2800 µg/mL (≈ 5.29 mM); in data set [2] (40 °C, Glacial Acetic Acid, mg per ml saturated solution, read-out: Solubility at 40° C.) it was 233000 µg/mL (≈ 440 mM). For the same compound, the “Solubility at 25° C.” value in data set [2] (setting [3]) was 12.7 wt %; in data set [2] (setting [4]) it was 0.76 wt %; in data set [2] (setting [5]) it was 0.36 wt %. Moreover, the “Solubility at 40° C.” value in data set [2] (setting [3]) was 21.1 wt %; in data set [2] (Methanol:Acetic Acid 9:1 (w:w), mg per ml saturated solution), 8 mg/mL (≈ 15.1 mM); in data set [2] (setting [4]), 1.0 wt %; in data set [2] (Methanol, mg of nilotinib per ml saturated solution), 5.0 mg/mL (≈ 9.44 mM); in data set [2] (setting [5]), 0.66 wt %.
